# Literature values as cited in patent US20030036565A1, “Cancer chemopreventive agents” (WISCONSIN ALUMNI RESEARCH FOUNDATION, priority 2001, published 2003).
# Test system: phase II enzyme synthesis
# Conditions: cultured murine hepatoma cells; Wilkinson and Clapper, 1997
row,Structure (SMILES),induction of phase II enzyme synthesis
1,"COc1ccc(O)c(C(C)(C)C)c1 [BHA, butylated hydroxyanisole]",induce phase II enzyme synthesis
2,"CC(C)(C)c1cc(O)ccc1O [TBHQ, tert-butylhydroquinone]",induce phase II enzyme synthesis
3,O=c1cc(-c2ccccc2)oc2ccc3ccccc3c12 [β-naphthoflavone],induce phase II enzyme synthesis
4,"Cc1cc(C(C)(C)C)c(O)c(C(C)(C)C)c1 [BHT, butylated hydroxytoluene]",induce phase II enzyme synthesis
